The first assay deals with Ras-related protein Rab-7a (Canis lupus familiaris, UniProt P18067). As to the kind of experiment: Rab7 wildtype GTP binding inhibitors, SAR follow-up, biochemical, dog Rab7, bead multiplex flow cytometry, Bodipy-FL-GTP, pyrazoline series (AID 2041).
Chain of Ras-related protein Rab-7a (P18067 whole entry): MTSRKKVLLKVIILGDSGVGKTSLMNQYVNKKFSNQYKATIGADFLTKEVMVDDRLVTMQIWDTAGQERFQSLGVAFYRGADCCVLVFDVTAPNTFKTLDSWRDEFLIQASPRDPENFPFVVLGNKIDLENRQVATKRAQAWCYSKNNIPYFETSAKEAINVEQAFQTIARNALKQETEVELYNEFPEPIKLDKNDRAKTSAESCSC
Details: not given
In general, EC50 refers to the concentration needed to bring the measured effect to its halfway point. Low values mean a more potent agent, high ones a less potent agent. Take `NS(=O)(=O)c1ccc(N2N=C(c3ccccc3)CC2c2ccccc2Br)cc1` (centres undefined) [4-[3-(2-bromophenyl)-5-phenyl-3,4-dihydropyrazol-2-yl]benzenesulfonamide]: the EC50 is above 30 µM.
Turning to `COc1ccccc1N1N=C(c2ccccc2)CC1c1ccccc1` (centres undefined) [UNM-0000305855], the EC50 worked out at 10.2 µM.
The compound `COc1ccc(C2CC(c3ccccc3C)=NN2c2ccc(S(N)(=O)=O)cc2)cc1` (centres undefined) [UNM-0000306152] yielded an EC50 above 30 µM.
On the same count and under the same terms, as for `NS(=O)(=O)c1ccc(N2N=C(c3ccccc3)CC2c2cccc(Cl)c2)cc1` (centres undefined) [UNM-0000306161], the figure is above 30 µM; as for `Brc1ccc(N2N=C(c3ccccc3)CC2c2ccccc2)cc1` (centres undefined), above 30 µM; as for `COc1ccc(C2=NN(c3ccccc3)C(c3ccccc3C(F)(F)F)C2)cc1` (centres undefined), above 30 µM.
Regarding `COc1ccc(C2CC(c3cccs3)=NN2c2ccc(S(N)(=O)=O)cc2)cc1` (centres undefined) [KUC103438N], the EC50 was above 30 µM.
The same measure, in the same setting: as for `COc1ccc(C2CC(c3ccncc3)=NN2c2ccc(S(N)(=O)=O)cc2)cc1` (centres undefined), the figure is above 30 µM; as for `COc1ccc(C2CC(c3cccnc3)=NN2c2ccc(S(N)(=O)=O)cc2)cc1` (centres undefined), above 30 µM.
Still for that read-out and setting: to `NS(=O)(=O)c1ccc(N2N=C(c3ccc(Cl)cc3)CC2c2ccccc2)cc1` (centres undefined) belongs above 30 µM.
`COc1ccc(C2CC(c3cccc(C)c3)=NN2c2ccc(S(N)(=O)=O)cc2)cc1` (centres undefined) [UNM-0000306153] displayed an EC50 above 30 µM.
Same read-out and setting: as for `COc1ccc(C2=NN(c3ccc(Cl)c(Cl)c3)C(c3ccc(OC)cc3)C2)cc1` (centres undefined) [2-(3,4-dichlorophenyl)-3,5-bis(4-methoxyphenyl)-3,4-dihydropyrazole], the figure is above 30 µM; as for `Cc1ccccc1N1N=C(c2ccccc2)CC1c1ccc(N(C)C)cc1` (centres undefined) [N,N-dimethyl-4-[2-(2-methylphenyl)-5-phenyl-3,4-dihydropyrazol-3-yl]aniline], above 30 µM; as for `NS(=O)(=O)c1ccc(N2N=C(c3ccccc3)CC2c2ccccc2)cc1` (centres undefined) [4-(3,5-diphenyl-3,4-dihydropyrazol-2-yl)benzenesulfonamide], above 30 µM.
Still for that read-out and setting: to `Cc1cccc(C2CC(c3ccccc3)=NN2c2ccc(S(N)(=O)=O)cc2)c1` (centres undefined) belongs above 30 µM.
On the same count and under the same terms, to `Cc1ccc(-c2cc(C(F)(F)F)nn2-c2ccc(S(N)(=O)=O)cc2)cc1` [Celecoxib] belongs above 30 µM.
`COc1ccc(C2CC(c3cccc(Br)c3)=NN2c2ccc(S(N)(=O)=O)cc2)cc1` (centres undefined) [UNM-0000306113] showed an EC50 above 30 µM.
For `Cc1ccccc1[N+]1=N[C-](c2ccccc2)CC1c1cccc([N+](=O)[O-])c1` (centres undefined) [UNM-0000305854], the EC50 is above 30 µM.
Take `COc1ccc(C2CC(c3ccsc3)=NN2c2ccc(S(N)(=O)=O)cc2)cc1` (centres undefined) [4-[3-(4-methoxyphenyl)-5-thiophen-3-yl-3,4-dihydropyrazol-2-yl]benzenesulfonamide]: the EC50 was above 30 µM.
On the same count and under the same terms, to `Cc1ccccc1C1CC(c2ccccc2)=NN1c1ccc(S(N)(=O)=O)cc1` (centres undefined) [UNM-0000306148] belongs above 30 µM.
`COc1ccc(C2CC(c3ccc(C)cc3)=NN2c2ccc(S(N)(=O)=O)cc2)cc1` (centres undefined) registered an EC50 above 30 µM.
On the same count and under the same terms, as for `COc1ccc(C2CC(c3ccc(N(C)C)cc3)=NN2c2ccc(S(N)(=O)=O)cc2)cc1` (centres undefined) [KUC103422N], the figure is above 30 µM.
Same read-out and setting: to `COc1ccc(C2CC(c3ccc(F)cc3)=NN2c2cc(Cl)ccc2Cl)cc1` (centres undefined) [2-(2,5-dichlorophenyl)-5-(4-fluorophenyl)-3-(4-methoxyphenyl)-3,4-dihydropyrazole] belongs 11.1 µM; to `CN(C)c1ccc(C2CC(c3ccc(F)cc3)=NN2c2ccccc2)cc1` (centres undefined) [UNM-0000305866], above 30 µM; to `COc1ccc(C2CC(c3cccc(F)c3)=NN2c2ccc(S(N)(=O)=O)cc2)cc1` (centres undefined) [4-[5-(3-fluorophenyl)-3-(4-methoxyphenyl)-3,4-dihydropyrazol-2-yl]benzenesulfonamide], above 30 µM.
For `CC(=O)Oc1ccc(C2=NN(c3ccccc3)C(c3ccccc3)C2)cc1` (centres undefined), the EC50 is above 30 µM.
On the same count and under the same terms, as for `Cc1onc(-c2ccccc2)c1-c1ccc(S(N)(=O)=O)cc1`, the figure is above 30 µM.
On the same count and under the same terms, to `O=S(=O)(c1ccc(N2N=C(c3ccc(Br)cc3)CC2c2ccccc2)cc1)C(F)F` (centres undefined) [5-(4-bromophenyl)-2-[4-(difluoromethylsulfonyl)phenyl]-3-phenyl-3,4-dihydropyrazole] belongs above 30 µM; to `COc1ccc(C2CC(c3ccccc3)=NN2c2ccc(Cl)c(C(=O)O)c2)cc1` (centres undefined), above 30 µM.
The same measure, in the same setting: as for `NS(=O)(=O)c1ccc(N2N=C(c3ccc(Br)cc3)CC2c2ccc(F)cc2)cc1` (centres undefined) [4-[5-(4-bromophenyl)-3-(4-fluorophenyl)-3,4-dihydropyrazol-2-yl]benzenesulfonamide], the figure is above 30 µM; as for `COc1ccc(C2CC(c3ccccc3)=NN2c2ccc(Cl)c(C(=O)O)c2)cc1OC` (centres undefined) [2-chloro-5-[3-(3,4-dimethoxyphenyl)-5-phenyl-3,4-dihydropyrazol-2-yl]benzoic acid], above 30 µM; as for `Fc1ccccc1C1CC(c2ccc(Br)cc2)=NN1c1ccc(Br)cc1` (centres undefined) [2,5-bis(4-bromophenyl)-3-(2-fluorophenyl)-3,4-dihydropyrazole], above 30 µM.
The compound `CN(C)c1ccc(C2C[C-](c3ccccc3)N=[N+]2c2ccc([N+](=O)[O-])cc2)cc1` (centres undefined) displayed an EC50 above 30 µM.
Still for that read-out and setting: to `CN(C)c1ccc(C2CC(c3ccccc3)=NN2c2ccccc2)cc1` (centres undefined) [4-(2,5-diphenyl-3,4-dihydropyrazol-3-yl)-N,N-dimethylaniline] belongs above 30 µM.
On the same count and under the same terms, to `COc1ccc(C2CC(c3ccc(F)cc3)=NN2c2ccc(S(N)(=O)=O)cc2)cc1` (centres undefined) [4-[5-(4-fluorophenyl)-3-(4-methoxyphenyl)-3,4-dihydropyrazol-2-yl]benzenesulfonamide] belongs above 30 µM.
The same measure, in the same setting: as for `FC(F)(F)c1ccccc1C1CC(c2ccc(Br)cc2)=NN1c1ccccc1` (centres undefined) [5-(4-bromophenyl)-2-phenyl-3-[2-(trifluoromethyl)phenyl]-3,4-dihydropyrazole], the figure is above 30 µM; as for `COc1ccc(C2=NN(c3ccccc3F)C(c3ccc(F)cc3)C2)cc1` (centres undefined) [UNM-0000305860], above 30 µM.
`COc1ccc(C2CC(c3cccc(N(C)C)c3)=NN2c2ccc(S(N)(=O)=O)cc2)cc1` (centres undefined) showed an EC50 above 30 µM.
On the same count and under the same terms, to `Clc1cccc(N2N=C(c3ccccc3)CC2c2ccccc2)c1` (centres undefined) belongs above 30 µM; to `COc1ccc(C2CC(c3ccc(Cl)cc3)=NN2c2ccccc2)cc1OC` (centres undefined) [UNM-0000305858], above 30 µM; to `COc1ccccc1C1CC(c2ccccc2)=NN1c1ccc(S(N)(=O)=O)cc1` (centres undefined) [4-[3-(2-methoxyphenyl)-5-phenyl-3,4-dihydropyrazol-2-yl]benzenesulfonamide], above 30 µM.
The same measure, in the same setting: to `COc1ccc(C2CC(c3ccc(Br)cc3)=NN2c2ccccc2Cl)cc1` (centres undefined) [UNM-0000305832] belongs above 30 µM; to `CN(C)c1ccc(C2CC(c3ccc(Cl)cc3)=NN2c2ccccc2)cc1` (centres undefined) [UNM-0000305847], above 30 µM; to `COc1ccc(C2CC(c3ccccc3Br)=NN2c2ccc(S(N)(=O)=O)cc2)cc1` (centres undefined) [UNM-0000306112], above 30 µM.
Still for that read-out and setting: as for `O=C(O)c1ccc(N2N=C(c3ccccc3)CC2c2ccccc2)cc1` (centres undefined), the figure is above 30 µM; as for `COc1ccc(C2CC(c3ccccc3OC)=NN2c2ccc(S(N)(=O)=O)cc2)cc1` (centres undefined), above 30 µM; as for `COc1ccc(C2C[C-](c3ccccc3)N=[N+]2c2ccc([N+](=O)[O-])cc2)cc1` (centres undefined) [3-(4-methoxyphenyl)-2-(4-nitrophenyl)-5-phenyl-3,4-dihydropyrazole], above 30 µM.
For the compound `NS(=O)(=O)c1ccc(N2N=C(c3ccccc3)CC2c2ccc(Br)cc2)cc1` (centres undefined) [UNM-0000306160], the EC50 is above 30 µM.
With `COc1ccc(C2CC(c3ccccc3C(F)(F)F)=NN2c2ccc(S(N)(=O)=O)cc2)cc1` (centres undefined) [KUC103474N], the EC50 was above 30 µM.
On the same count and under the same terms, to `COc1ccc(C2CC(c3ccc(C(F)(F)F)cc3)=NN2c2ccc(S(N)(=O)=O)cc2)cc1` (centres undefined) [4-[3-(4-methoxyphenyl)-5-[4-(trifluoromethyl)phenyl]-3,4-dihydropyrazol-2-yl]benzenesulfonamide] belongs above 30 µM; to `COc1ccc(C2CC(c3ccc(F)cc3)=NN2c2ccccc2)cc1OC` (centres undefined) [UNM-0000305864], above 30 µM; to `COc1ccc(C2CC(c3ccccc3)=NN2c2cccc(S(N)(=O)=O)c2)cc1` (centres undefined) [3-[3-(4-methoxyphenyl)-5-phenyl-3,4-dihydropyrazol-2-yl]benzenesulfonamide], above 30 µM.
The same measure, in the same setting: as for `CN(C)c1ccc(C2CC(c3ccc(Br)cc3)=NN2c2ccccc2)cc1` (centres undefined) [UNM-0000305846], the figure is above 30 µM; as for `COc1ccc(C2CC(c3ccc(Cl)cc3)=NN2c2ccc(S(N)(=O)=O)cc2)cc1` (centres undefined), above 30 µM.
On the same count and under the same terms, as for `COc1ccc(-c2cc(-c3ccccc3)nn2-c2ccc(S(N)(=O)=O)cc2)cc1` [4-[5-(4-methoxyphenyl)-3-phenylpyrazol-1-yl]benzenesulfonamide], the figure is above 30 µM.
Turning to `COc1ccc(C2=NN(c3ccccc3)C(c3ccc(OC)c(OC)c3C(=O)O)C2)cc1` (centres undefined) [UNM-0000305848], the EC50 was above 30 µM.
Regarding `O=[N+]([O-])c1cccc(C2C[C-](c3ccc(F)cc3)N=[N+]2c2ccccc2)c1` (centres undefined) [5-(4-fluorophenyl)-3-(3-nitrophenyl)-2-phenyl-3,4-dihydropyrazole], the EC50 is above 30 µM.
Still for that read-out and setting: as for `COc1ccc(C2CC(C3CCCCC3)=NN2c2ccc(S(N)(=O)=O)cc2)cc1` (centres undefined) [4-[5-cyclohexyl-3-(4-methoxyphenyl)-3,4-dihydropyrazol-2-yl]benzenesulfonamide], the figure is above 30 µM; as for `COc1ccc(C2CC(c3ccccc3)=NN2c2ccc(C(=O)O)cc2)cc1` (centres undefined) [UNM-0000306085], above 30 µM.
On the same count and under the same terms, to `COc1ccc(C2CC(c3ccc(F)cc3)=NN2c2cccc(F)c2)cc1OC` (centres undefined) belongs 22.5 µM.

Staying with this assay, now noted: inactive by the depositor's call.
`COc1ccc(C2CC(c3cccc(Cl)c3)=NN2c2ccc(S(N)(=O)=O)cc2)cc1` (centres undefined) [UNM-0000306134]: the EC50 was found to be 0.141 µM.
Same read-out and setting: as for `COc1ccc(C2=NN(c3cccc(F)c3)C(c3ccc(OC)cc3)C2)cc1` (centres undefined) [2-(3-fluorophenyl)-3,5-bis(4-methoxyphenyl)-3,4-dihydropyrazole], the figure is 0.104 µM; as for `COc1ccc(C2=NN(c3ccccc3)C(c3ccc(Cl)cc3)C2)cc1` (centres undefined) [UNM-0000305833], 0.679 µM; as for `O=S(=O)(c1ccc(N2N=C(c3ccccc3)CC2c2ccccc2)cc1)C(F)F` (centres undefined), 0.508 µM.

(Values after BindingDB's records for doi:10.7270/Q2MK6B9H (Nmmlsc, 2009).)
